Measured values published in paper PMC6773865, “Functional recruitment of dynamin requires multimeric interactions for efficient endocytosis” (Nature Communications, 2019).

Assays:
[1] = target: SH3 domain of amphiphysin (amphSH3); conditions: read-out: affinity for amphSH3; cited from earlier work
Source text: The large GTPase dynamin is essential for vesicle scission[6] and is primarily recruited at the last steps of vesicle formation[4],[7],[8]. Many aspects of the function of this indispensable protein have been deciphered[9] but how its recruitment is regulated in cells is still a matter of debate. In this regard, the C-terminal proline/arginine rich domain of dynamin (dynPRD) is critical. It is a major interaction hub for Src-homology domain 3 (SH3) domain-containing endocytic accessory proteins[10] that bears several class I (RxxPxxP) and class II (PxxPxR) SH3-binding motifs (where P is prolin ...

[2] = system: membrane capacitance of NIH 3T3 cells (balance between exocytosis and endocytosis); assay: Cell capacitance in whole cell patch-clamp; assay type: cell-based; conditions: 10th minute over 1st minute of whole cell recording; peptides 1 mM; paired t-test
Experimental: Cells were patched with pipettes made of borosilicate glass (GC150F, Harvard Apparatus) and pulled with a vertical Narishige puller (World Precision Instruments). The solution contained (in mM): 130–140 KCH3SO3, 1 EGTA, 0.1 CaCl2, 10–20 HEPES, 4 ATP (sodium or magnesium salt), 0.4 Na-GTP (or GTPγS when indicated), 5 phosphocreatine and 3 sodium ascorbate. pH was adjusted to 7.2 using KOH and osmolarity to ~300 mOsm L^−1. Sodium ascorbate was omitted in earlier recordings but was added for better stability. Chloride ions either came from 2 mM KCl, 10 mM NaCl or 4 mM MgCl2 (when Na-ATP was used) in various trials. All salts were purchased from Sigma-Aldrich. Cells were voltage-clamped at −60 mV with an EPC10 amplifier (HEKA) with series resistance and cell capacitance estimation every 4 s in the whole cell mode. The digital triggers of the amplifier were used to drive the electrovalves for pH changes. Cell viability and dialysis efficiency were made sure of by monitoring […] throughout the recording using the Patchmaster software (HEKA): series resistance should remain below 10 MΩ and holding current should remain above −100 pA. If either of these criteria was not respected (except holding current for recordings in GTPγS, see Supplementary Fig. 3D), the recording was not considered for analysis. On a given experimental day at least one control recording (i.e. without any peptide) was performed to ensure recording quality. All these recordings were pooled in the ‘control’ condition (n = 63 on 42 experimental days). […]
Supplementary Figure 5: Characteristics of the whole cell recordings in the different conditions of this study. A, Scheme of the equivalent electrical circuit of a cell recorded in the whole cell configuration. […]
This is likely due to the activation of GTP dependent trimeric G proteins which activate various channels in the presence of GTPγS, thereby increasing the holding current. […] F, Ratios of Cm recorded during the 10 th minute of recording over Cm recorded during the 1st minute. […]

| Molecule | Kd [1] [µM] | change of Cm, Cm(10')/Cm(1') [2] |
| --- | --- | --- |
| Ac-YPPPQVPSRPNRAPPG-NH2 [D15, reference compound] | 90 | – |
| CC(=O)N[C@@H](Cc1ccc(O)cc1)C(=O)N[C@@H](CCCCn1cc(CCC(=O)NCCCOCCOCCOCCCNC(=O)CCC(=O)NCCCOCCOCCOCCCNC(=O)CCC(=O)NCCCOCCOCCOCCCNC(=O)CCC(=O)N2CCC[C@H]2C(=O)N2CCC[C@H]2C(=O)N2CCC[C@H]2C(=O)N[C@@H](CCC(N)=O)C(=O)N[C@H](C(=O)N2CCC[C@H]2C(=O)N[C@@H](CO)C(=O)N[C@@H](CCCNC(=N)N)C(=O)N2CCC[C@H]2C(=O)N[C@@H](CC(N)=O)C(=O)N[C@@H](CCCNC(=N)N)C(=O)N[C@@H](C)C(=O)N2CCC[C@H]2C(=O)N2CCC[C@H]2C(=O)NCC(N)=O)C(C)C)nn1)C(=O)NCCCOCCOCCOCCCNC(=O)CCC(=O)NCCCOCCOCCOCCCNC(=O)CCC(=O)NCCCOCCOCCOCCCNC(=O)CCC(=O)N1CCC[C@H]1C(=O)N1CCC[C@H]1C(=O)N1CCC[C@H]1C(=O)N[C@@H](CCC(N)=O)C(=O)N[C@H](C(=O)N1CCC[C@H]1C(=O)N[C@@H](CO)C(=O)N[C@@H](CCCNC(=N)N)C(=O)N1CCC[C@H]1C(=O)N[C@@H](CC(N)=O)C(=O)N[C@@H](CCCNC(=N)N)C(=O)N[C@@H](C)C(=O)N1CCC[C@H]1C(=O)N1CCC[C@H]1C(=O)NCC(N)=O)C(C)C [dD15-N] | – | no significant decrease in Cm |
